Laboratory results published in paper PMC7316778 (Nature Communications, 2020).
Values joined by “and” are separate entries in the source; they are usually repeats but may differ in a detail not shown here. Equal entries are not always repeated. Where two headings read alike, the source gives them in different places.

Key:
FES^S700C = FES^S700C (Homo sapiens, UniProt P07332, S700C); test: FES Y713 autophosphorylation immunoblot, transfected HEK293T cells; assay type: cell-based; set-up: expressed in transfected cells; host or cells: HEK293T (transient, PEI); details: WEL028 100 nM
Chain of FES^S700C (P07332 whole entry S700C): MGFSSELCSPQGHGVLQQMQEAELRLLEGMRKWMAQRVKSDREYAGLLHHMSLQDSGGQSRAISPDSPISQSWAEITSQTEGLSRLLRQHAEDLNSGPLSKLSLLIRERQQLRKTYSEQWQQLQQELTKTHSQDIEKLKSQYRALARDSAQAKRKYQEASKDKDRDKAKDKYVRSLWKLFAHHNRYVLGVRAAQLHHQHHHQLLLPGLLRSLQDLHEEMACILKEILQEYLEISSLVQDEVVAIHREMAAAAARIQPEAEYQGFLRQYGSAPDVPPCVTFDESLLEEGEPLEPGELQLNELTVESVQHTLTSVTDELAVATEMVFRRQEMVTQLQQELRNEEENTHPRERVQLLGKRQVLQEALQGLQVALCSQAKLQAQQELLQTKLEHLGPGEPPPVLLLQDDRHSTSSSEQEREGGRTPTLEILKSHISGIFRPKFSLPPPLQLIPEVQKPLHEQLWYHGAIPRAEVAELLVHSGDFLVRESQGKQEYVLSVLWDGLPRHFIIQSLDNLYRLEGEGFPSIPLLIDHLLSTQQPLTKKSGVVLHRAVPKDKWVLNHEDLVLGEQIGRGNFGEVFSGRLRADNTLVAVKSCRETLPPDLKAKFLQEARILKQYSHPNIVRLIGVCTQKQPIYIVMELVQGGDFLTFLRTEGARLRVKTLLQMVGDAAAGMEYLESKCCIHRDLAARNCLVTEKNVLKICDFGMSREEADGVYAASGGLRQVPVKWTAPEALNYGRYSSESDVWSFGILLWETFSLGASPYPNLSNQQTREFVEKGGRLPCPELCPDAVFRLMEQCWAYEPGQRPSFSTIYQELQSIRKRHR
Method: Samples were resolved by SDS-PAGE as described above, but transferred to 0.2 μm polyvinylidene difluoride membranes by Trans-Blot Turbo™ Transfer system (Bio-Rad) directly after fluorescence scanning. Membranes were washed with TBS (50 mM Tris pH 7.5, 150 mM NaCl) and blocked with 5% milk in TBS-T (50 mM Tris pH 7.5, 150 mM NaCl, 0.05% Tween-20) for 1 h at rt.
Membranes were then incubated with primary antibody in 5% milk in TBS-T (FLAG, V5, β-actin; o/n at 4 °C) or washed three times with TBS-T, followed by incubation with primary antibody in 5% BSA in TBS-T (other antibodies, o/n at 4 °C). Membranes were washed three times with TBS-T, incubated with matching secondary antibody in 5% milk in TBS-T (1:5000, 1 h at rt) and then washed three times with TBS-T and once with TBS. Luminol development solution (10 mL of 1.4 mM luminol in 100 mM Tris pH 8.8 + 100 µL of 6.7 mM p-coumaric acid in DMSO + 3 µL of 30% (v/v) H2O2) or Clarity Max™ ECL Substrate (Bio-Rad) was added and chemiluminescence was detected on ChemiDoc™ MP System.

MAPK13 (p38 delta) = molecular target: T1, MAPK13 (p38 delta) (Homo sapiens, UniProt O15264); test: SelectScreen kinase assay
T1 sequence (O15264 1-365): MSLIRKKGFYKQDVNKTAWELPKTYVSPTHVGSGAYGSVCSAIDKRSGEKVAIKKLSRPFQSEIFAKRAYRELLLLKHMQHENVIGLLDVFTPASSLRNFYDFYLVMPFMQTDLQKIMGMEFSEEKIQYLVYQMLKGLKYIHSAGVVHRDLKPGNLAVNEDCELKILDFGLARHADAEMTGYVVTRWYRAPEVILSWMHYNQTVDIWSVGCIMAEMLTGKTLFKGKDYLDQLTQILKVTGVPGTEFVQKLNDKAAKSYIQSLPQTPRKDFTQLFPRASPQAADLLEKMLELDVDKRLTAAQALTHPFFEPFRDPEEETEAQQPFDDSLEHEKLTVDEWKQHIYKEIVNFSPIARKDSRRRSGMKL
Method: Selectivity profiling assays were performed by the Invitrogen SelectScreen™ Services. […] The concentration of ATP was selected to be equal to the KM, unless indicated otherwise.

FES^S700C HL-60 cells = test: Morphological inspection after PMA-induced differentiation; assay type: cell-based, human
Method: One day prior to induction of differentiation, cells were diluted to 0.4 × 10^6 cells/mL. […] Neutrophil differentiation was induced by addition of all-trans-retinoic acid (1 µM) and dimethylsulfoxide (1.25%) for 72–96 h. For morphological inspection, images were taken on an EVOS FL Auto 2 Imaging System (Thermo Fisher) at ×20 magnification.
Supplementary Figure 10. Analysis of putative sgRNA off-target site. Analysis of the only predicted coding off-target of the sgRNA target sequence employed for FESS700C mutagenesis, located in the TTC16 gene. Genomic region surrounding putative off-target site was amplified by PCR, followed by Sanger sequencing analysis. No off-target gene editing events were observed.
Supplementary Figure 11. Morphological inspection of WT and FESS700C HL-60 cells after PMA-induced differentiation towards macrophages. Cells were treated with vehicle or indicated concentrations of WEL028 during PMA-induced differentiation toward macrophages. Wild-type and […]
are representative for multiple acquired images at 20x magnification from replicates (n = 3).
(also on this page, place not known: off -target off -target FES S700C PMA -induced W ild-type PAM Predicted TTC16 (NM_144965) HL-60 WT HL-60 125 μm Non-differentiated PMA (16 nM, 48 h) HL-60 WTHL-60 FESS700C Vehicle Vehicle WEL028 (100 nM) WEL028 (1 µM))

Question: With C#CCOc1ccc(Nc2ncc(Cl)c(Nc3ccccc3NC(=O)C=C)n2)c(OC)c1 [Compound 6] as the compound, how does the “Relative FES labeling (%)” value (FES^S700C; Fig. 4i, anti-phospho-FES Y713 band intensity, replicates, normalized to vehicle) read?
Answer: Its value is 6.91% and 5.589% and 0.4481%.

Question: What about the “Autophosphorylation of Tyr713” value (FES^S700C) of the same compound?
Answer: The value was “fully abolished autophosphorylation”.

Question: What about the inhibition at 1 µM (MAPK13 (p38 delta); 1 h, 1 μM WEL028, 1 h preincubation) of the same compound?
Answer: The inhibition at 1 µM was 5%.

Question: What about the “Inhibition at 1 µM (%)” value (MAPK13 (p38 delta); MAPK13 (p38 delta), 1 µM, ZLYTE, ATP Km app, listed as WEL028, 1 µM) of the same compound?
Answer: The value was 6%.

Question: And the inhibition at 1 µM (MAPK13 (p38 delta); read-out: Inhibition at 1 µM (%), MAPK13 (p38 delta), 1 µM, ZLYTE, ATP Km app)?
Answer: Its inhibition at 1 µM is 4%.

Question: And the Morphology (FES^S700C HL-60 cells; 100 nM WEL028)?
Answer: Its Morphology is “macrophage morphology”.

Question: And the Morphology (FES^S700C HL-60 cells; 1 µM WEL028)?
Answer: The Morphology was “morphology is similar to non-differentiated cells”.
